{"source": "patent US20160338977A1", "about": "“METHODS AND KITS FOR TREATING DEPRESSION” (Janssen Pharmaceutica NV, priority 2015, published 2016)", "key": {"[1]": {"tested_on": "subjects with Treatment Resistant Depression (TRD)", "assay": "MADRS total score, double-blind placebo-controlled intranasal induction study", "assay_type": "in vivo, human", "details": "for Mean Differences (SE) from placebo, MADRS total score: Day 8, data from both Periods 1 and 2; for Estimated Differences from placebo, MADRS total score: best fit sigmoidal Emax model; for Least Square Mean Difference from Placebo, MADRS total score: change from baseline to Day 8, ANCOVA LOCF", "text": "The subjects discussed in Examples 1 to 5 included adult men and women, 18 (or older if the minimum legal age of consent in the country in which the study is taking place is >18) to 64 years of age (inclusive), who meet diagnostic criteria for recurrent MDD or single-episode MDD, based upon clinical assessment.\nThis example was a 2-panel, doubly-randomized, double-blind, placebo-controlled, multicenter study. In both panels, each subject participated in a screening phase of up to 4 weeks and/or a double-blind treatment phase which includes two 1-week periods (Period 1 and Period 2).\nSixty-seven (67) subjects with Treatment Resistant Depression (TRD) were randomly assigned in a 3:1:1:1 ratio to 1 of the 4 treatment groups in Table 1.\nAll subjects self-administered the intranasal esketamine (28, 56, or 84 mg) or placebo on non-consecutive days. Each intranasal device contains 2 sprays and contain esketamine deliver 14 mg per spray, for a total of 28 mg per individual device (i.e., 2 sprays). […] Food was restricted for 8 hours before each administration of study drug and the drinking of fluids was restricted for at least 30 minutes before the first nasal spray.\nIn Period 2, 28 placebo subjects who were eligible for re-randomization at the end of Period 1 were randomly assigned to as noted in Table 1 in a 1:1:1:1 ratio. Subjects eligible for re-randomization had to have a QIDS-SR16 total score >11 at the end of Period 1. Central randomization was implemented in this study. Both randomizations were balanced using randomly permuted blocks and were stratified by study center. The randomization for Period 2 was also stratified by QIDS-SR16 score at the end of Period 1 (moderate=11-16; severe >16) Subjects who were randomly assigned to esketamine in Period 1 continued to receive esketamine in Period 2, while Period 1 placebo subjects with a QIDS-SR16 total score <11 continued with placebo in Period 2.\nThe Period 1 ITT analysis set consisted of all randomized subjects who received at least 1 dose of study medication during Period 1 and had both the baseline and at least one post baseline value for the primary endpoint measure, MADRS total score, within Period 1. The Period 2 ITT analysis set consisted of all Period 1 placebo subjects who were eligible for re-randomization (QIDS-SR16≧11 at end of Period 1), who actually got re-randomized into Period 2 and received at least 1 dose of study medication during Period 2, and had both the baseline and at least one post baseline MADRS total score within Period 2.\nThe MADRS consisted of 10 items that covered all of the core depressive symptoms (apparent sadness, reported sadness, inner tension, sleep, appetite, concentration, lassitude, interest level, pessimistic thoughts, and suicidal thoughts). Each item was scored from 0 (item is not present or is normal) to 6 (severe or continuous presence of the symptom). A total score (0 to 60) was calculated by summing the scores of all 10 items. A higher score represented a more severe condition. Sustained response (onset of clinical response) was defined as at least 50% improvement from baseline in the MADRS total score with an onset by Day 2 that was maintained to study Day 15. The primary efficacy endpoint was the change in MADRS total score from baseline to Day 8 in each period, with the analysis based on data combined across both periods. The primary efficacy analysis was performed on the intent-to-treat (ITT) analysis sets that were defined for each period, which included all randomized subjects who received at least 1 dose of study medication during that period and have both the baseline and at least one post baseline MADRS total score within that period. Significance was based on a one-sided alpha level of 0.05.\nA separate ANCOVA model was performed on last observation carried forward (LOCF) data for each period. Changes from baseline in Period 1 were modeled with treatment as a factor and Period 1 baseline value as a covariate. […]"}, "[2]": {"tested_on": "subjects with Treatment Resistant Depression (TRD)", "assay": "Treatment emergent adverse events (TEAE) in the subjects of Example 1", "text": "The treatment emergent adverse event (TEAE) side effects for the subjects of Example were obtained. See, Table 7."}, "[3]": {"tested_on": "subjects with Treatment Resistant Depression (TRD)", "assay": "Clinician Administered Dissociative States Scale (CADSS)", "assay_type": "in vivo, human", "details": "post dose; intranasal", "method": "The Clinician Administered Dissociative States Scale (CADSS) was measured prior to the start of each dose, at 40 minutes and at 2 hours post dose. The CADSS is used to assess treatment emergent dissociative symptoms and perceptual changes and the total score ranges from 0 to 92 with a higher score representing a more severe condition. […] See, FIG. 4."}, "NMDA receptor": {"tested_on": "NMDA receptor", "details": "compared with the R-enantiomer (arketamine); cited from earlier work"}}}
{"smiles": "CN[C@]1(c2ccccc2Cl)CCCCC1=O.Cl", "note": "[Esketamine, (S)-2-(2-chlorophenyl)-2-(methylamino)cyclohexanone hydrochloride]", "values": [{"measurement": "statistical comparison with placebo, dose response model, MADRS total score", "setting": "[1]; 14 mg (model estimate, dose not studied), 90% CI included 0", "result": "not statistically different from placebo"}, {"measurement": "Mean Differences (SE) from placebo, MADRS total score", "setting": "[1]; 28 mg", "result": "−4.2 (2.09)"}, {"measurement": "Estimated Differences from placebo, MADRS total score", "setting": "[1]; 28 mg", "result": "−4.22"}, {"measurement": "statistical comparison with placebo, dose response model, MADRS total score", "setting": "[1]; 28 mg, sigmoidal Emax model, 90% CI", "result": "statistically superior to placebo"}, {"measurement": "Mean Differences (SE) from placebo, MADRS total score", "setting": "[1]; 56 mg", "result": "−6.3 (2.07)"}, {"measurement": "Estimated Differences from placebo, MADRS total score", "setting": "[1]; 56 mg", "result": "−7.04"}, {"measurement": "statistical comparison with placebo, dose response model, MADRS total score", "setting": "[1]; 56 mg, sigmoidal Emax model, 90% CI", "result": "statistically superior to placebo"}, {"measurement": "Mean Differences (SE) from placebo, MADRS total score", "setting": "[1]; 84 mg", "result": "−9.0 (2.13)"}, {"measurement": "Estimated Differences from placebo, MADRS total score", "setting": "[1]; 84 mg", "result": "−8.45"}, {"measurement": "statistical comparison with placebo, dose response model, MADRS total score", "setting": "[1]; 84 mg, sigmoidal Emax model, 90% CI", "result": "statistically superior to placebo"}, {"measurement": "Least Square Mean Difference from Placebo, MADRS total score", "setting": "[1]; Period 1, 28 mg intranasal", "result": "−5.0"}, {"measurement": "Least Square Mean Difference from Placebo, MADRS total score", "setting": "[1]; Period 1, 56 mg intranasal", "result": "−7.6"}, {"measurement": "Least Square Mean Difference from Placebo, MADRS total score", "setting": "[1]; Period 1, 84 mg intranasal", "result": "−10.5"}, {"measurement": "Least Square Mean Difference from Placebo, MADRS total score", "setting": "[1]; Period 2, 28 mg intranasal", "result": "−3.1"}, {"measurement": "Least Square Mean Difference from Placebo, MADRS total score", "setting": "[1]; Period 2, 56 mg intranasal", "result": "−4.4"}, {"measurement": "Least Square Mean Difference from Placebo, MADRS total score", "setting": "[1]; Period 2, 84 mg intranasal", "result": "−6.9"}, {"measurement": "statistical comparison with placebo, MADRS total score", "setting": "[1]; all three groups (28, 56, 84 mg), Period 1 and Period 2 combined, weighted combination test, one-sided 0.05", "result": "statistically superior to placebo"}, {"measurement": "Estimated Differences from placebo, MADRS total score", "setting": "[1]; dose cell blank (14 mg per text, dose not studied)", "result": "−1.98"}, {"measurement": "Patients Experiencing on TEAE", "setting": "[2]; Period 1, 28 mg intranasal", "result": 73}, {"measurement": "Patients Experiencing on TEAE", "setting": "[2]; Period 1, 56 mg intranasal", "result": 82}, {"measurement": "Patients Experiencing on TEAE", "setting": "[2]; Period 1, 84 mg intranasal", "result": 83}, {"measurement": "Patients Experiencing on TEAE", "setting": "[2]; Period 2, 28 mg intranasal", "result": 38}, {"measurement": "Patients Experiencing on TEAE", "setting": "[2]; Period 2, 56 mg intranasal", "result": 78}, {"measurement": "Patients Experiencing on TEAE", "setting": "[2]; Period 2, 84 mg intranasal", "result": 100}, {"measurement": "subjects who experienced at least one TEAE", "setting": "[2]; overall, esketamine in either Period 1 or Period 2", "result": "about 79%"}, {"measurement": "time of peak of dissociative and perceptual change symptoms (CADSS)", "setting": "[3]", "result": "≤ 40", "unit": "min"}, {"measurement": "time to resolution of dissociative and perceptual change symptoms (CADSS)", "setting": "[3]", "result": "≤ 2", "unit": "h"}, {"measurement": "potency or affinity for the NMDA receptor", "setting": "NMDA receptor", "result": "higher potency or affinity"}]}
